Assay results as given in ChEMBL document CHEMBL5046246, “Dimeric Tetracenomycin Derivatives from a Taklamakan Desert-Derived Streptomyces sp. HDN154193” (2022).
Converted amounts (≈) assume the structure as drawn.

Experiments:
Assay type in all cases: functional
[1] = system: Staphylococcus; experiment: Antibacterial activity against methicillin-resistant coagulase-negative Staphylococcus assessed as reduction in bacterial growth by double dilution method
[2] = system: Proteus sp.; experiment: Antibacterial activity against Proteus species assessed as reduction in bacterial growth by double dilution method; conditions: Proteus sp. (in: enterobacteria)
[3] = system: Staphylococcus aureus; experiment: Antibacterial activity against methicillin-resistant Staphylococcus aureus assessed as reduction in bacterial growth by double dilution method
[4] = system: Mycolicibacterium phlei; experiment: Antibacterial activity against Mycobacterium phlei assessed as reduction in bacterial growth by double dilution method
[5] = system: Bacillus subtilis; experiment: Antibacterial activity against Bacillus subtilis assessed as reduction in bacterial growth by double dilution method

Work on `Cc1cc(O)cc2cc3c(c(O)c12)C(=O)c1c(O)cc(O)cc1[C@H]3[C@H]1c2cc(O)cc(O)c2C(=O)c2c1cc1cc(O)cc(C)c1c2O` yielded an MIC [1] of 1.9 µg/mL (≈ 2.96 µM), an MIC [2] of 3.9 µg/mL (≈ 6.07 µM) and an MIC [3] of 1.9 µg/mL (≈ 2.96 µM). For the same compound, the MIC [4] was 1.9 µg/mL (≈ 2.96 µM) and the MIC [5] was 3.9 µg/mL (≈ 6.07 µM).
`Cc1cc(O)cc2cc3c(c(O)c12)C(=O)c1c(O)cc(O)cc1[C@@H]3[C@H]1c2cc(O)cc(O)c2C(=O)c2c1cc1cc(O)cc(C)c1c2O` was tested, and the MIC [1] was 1.9 µg/mL (≈ 2.96 µM), the MIC [2] was 3.9 µg/mL (≈ 6.07 µM) and the MIC [3] was 1.9 µg/mL (≈ 2.96 µM). It also gave an MIC [4] of 1.9 µg/mL (≈ 2.96 µM) and an MIC [5] of 3.9 µg/mL (≈ 6.07 µM).
Compound `Cc1cc(O)cc2cc3c(c(O)c12)C(=O)c1c(O)cc(O)cc1[C@H]3[C@@H]1c2cc(O)cc(O)c2C(=O)c2c1cc1cc(O)cc(C)c1c2O` has an MIC [1] of 1.9 µg/mL (≈ 2.96 µM), an MIC [2] of 1.9 µg/mL (≈ 2.96 µM) and an MIC [3] of 1.9 µg/mL (≈ 2.96 µM). The MIC [4] was 1.9 µg/mL (≈ 2.96 µM) and the MIC [5] was 1.9 µg/mL (≈ 2.96 µM).
With `Cc1cc(O)cc2cc3c(c(O)c12)C(=O)c1c(O)cc(O)cc1C3C1c2cc(O)cc(O)c2C(=O)c2c1cc1cc(O)cc(C)c1c2O` (racemic) the MIC [1] was 1.9 µg/mL (≈ 2.96 µM), the MIC [2] was 1.9 µg/mL (≈ 2.96 µM) and the MIC [3] was 1 µg/mL (≈ 1.56 µM). It also gave an MIC [4] of 1 µg/mL (≈ 1.56 µM) and an MIC [5] of 3.9 µg/mL (≈ 6.07 µM).
`O=C(O)c1cn(C2CC2)c2cc(N3CCNCC3)c(F)cc2c1=O` [CIPROFLOXACIN] was tested, and the MIC [1] was 32.1 µg/mL (≈ 96.9 µM), the MIC [2] was < 0.1 µg/mL and the MIC [3] was 128 µg/mL (≈ 388 µM). For the same compound, the MIC [4] was 0.1 µg/mL (≈ 0.302 µM) and the MIC [5] was < 0.1 µg/mL.
`Cc1cc(O)cc2cc3c(c(O)c12)C(=O)c1c(O)cc(O)cc1C3=O` [TETRACENOMYCIN D] showed an MIC [1] of 7.7 µg/mL (≈ 22.9 µM), an MIC [2] of 16 µg/mL (≈ 47.6 µM) and an MIC [3] of 16 µg/mL (≈ 47.6 µM). For the same compound, the MIC [4] was 7.7 µg/mL (≈ 22.9 µM) and the MIC [5] was 16 µg/mL (≈ 47.6 µM).
